# Key:
# [1] = Size of lipid droplets of dairy butter, microscopy; assay type: physicochemical
# Description: (§1) For measurement of lipid droplets and fat globules and quantification of their size binocular microscope Olympus BX41 was used with Cell^B software for morphometric analysis. All parameters were collected from 10 randomly selected microscopic fields at ×1000).
# Incorporation of lycopene into the butter led to a significant increase in the size of its lipid droplets and many reached more than 100 or even 300 fold of their diameter. This effect was dose-dependent, and can already be observed for less than 1 molecule of lycopene to 224,000 molecules of butter triglycerides.
# [2] = Size of pork fat globules, microscopy; assay type: physicochemical
# Protocol: as §1
# When carotenoids were added to animal fat, with a relatively high percentage of saturated fatty acid, a similar trend in increased fat globules was observed, although to a lesser degree. The maximum doses of lycopene or astaxanthin caused a similar increase in the pork fat globules diameter, only 50%, FIG. 2 and table 3.
# [3] = Size of beef fat globules, microscopy; assay type: physicochemical
# Description: as §1, with “×1000). In case of beef fat, lycopene incorporation led to a smaller increase of its fat globules, only by 30%, FIG. 3.” for “×1000).”
# [4] = Spreadability of fat drops on hard surface (viscosity); assay type: physicochemical
# Protocol: The described above enlargement of lipid droplets or fat globules, caused by carotenoids, translated into reduction of the viscosity of their product. This could be visually observed without any instrumentation—the larger surface area is covered by spreading a drop of oil or molten fat to lower the viscosity of this food mass.
# When astaxanthin was added to the dairy butter reduction its viscosity could be visually observed After measuring and comparing the size of the spread drops this decrease was estimated to be about 3, (FIG. 5).
# [5] = Oil volume needed to cover water surface; assay type: physicochemical; settings: 100 ml water sample; unmodified oil 21.5 ml
# Description: The other way to assess changes in oil viscosity, caused by carotenoids, would be to measure how much oil would be needed to cover a water surface of the same size. The lower viscosity of the oil the more spreadable it will be, and consequently less of it would be needed to cover this surface. Therefore, by measuring how much oil would be required to cover a certain surface of water we can asses how deep changes in the lipid folding were made by incorporating carotenoids.
# An additional nine heating experiments were carried out when either pure Napolina olive oil, Napolina olive oil containing Astaxanthin (7 mg/ml), or Napolina olive oil containing Lycopene (7 mg/ml) was carefully poured over the surface of the water in order to prevent evaporation. The amount of oil required to completely cover the surface of the 100 ml water sample in the cup (diameter—7.4 cm) was measured (15 ml Falcon laboratory tubes and 1 ml Pipetman pitettes were used) and recorded for each oil type. The thickness of the resulting oil film (necessary to completely cover water surface) was then calculated. Temperature change curves were compared for uncovered water and water samples overlayed with three varieties of oil at heating temperatures of 200° C., 250° C. and 300° C. Water samples overlaid with oils were heated until water reached boiling point (usually at 99° C.). […]
# Melting time at 37° C. [6] = assay type: physicochemical; settings: 0.3 mg per 1 g of butter
# Protocol: (§2) Approximately 20 mg of butter, or pork fat, or beef fat, or cocoa butter, or chocolate, with or without certain concentrations of carotenoids, were placed on the surface of the laboratory slides and incubated at 37° C. in a laboratory incubator (TLK39).
# Melting time at 37° C. [7] = assay type: physicochemical; settings: 1 mg per 1 g of the chocolate; control 19 minutes
# Protocol: as §2
# Results presented in FIG. 15 show three different carotenoids—lycopene, lutein and astaxanthin, can reduce, albeit to a different degree, the melting time of dark chocolate regardless of its tempering protocols: Protocol I—28° C., Protocol II—29° C., Protocol III—30° C.
# [8] = Defrosting time of frozen oil; assay type: physicochemical
# Protocol: To determined defrosting time, frozen oil aliquots of 200 μI were incubated at ambient temperature of 20±2 C° until they were completely melted. Period of time, which was required for the tested sample to be melted, was measured with a laboratory timer (QUANTUM).
# [9] = Heating olive oil-in-water emulsions; assay type: physicochemical
# [10] = tested on: healthy volunteers, facial skin; assay: Astaxanthin trial, residual skin surface components (RSSC); assay type: in vivo, human; settings: 4 mg daily, 4 weeks
# Protocol: Group I—31 (17 male and 14 female subjects, 40-80 years of age) for astaxanthin intervention;
# Group I—participants received 4 mg daily doses of formulated astaxanthin,
# Daily dose of each carotenoid product was taken in one capsule with the main evening meal for 4 weeks (from day 1 to day 28 of the study).
# For RSSC sample collection all participants of the study were requested to avoid facial hygienic manipulations for 24 hours before material collection, which was carried out in the morning. These samples were collected only before initiation of astaxanthin supplementation (day 0) and at the end of the study (day 29). RSSC sample collection and preparation was performed according to previously described procedures. Briefly, RSSC samples were collected using polyester swabs from the surface of the facial skin (the sides of the nose). During the procedure two samples were taken (one swab per side). Each collected sample was placed on the surface of a microscope slide. A second microscope slide was pressed against the surface of the first one. […] All slides with collected samples (i.e. four slides per study participant per time point) were coded to provide sample anonymity for blinded analysis. All collected samples were sent to the laboratory of Lycotec Ltd for further processing and eventual microscopic examination.
# For morphological analysis of RSSC samples one slide of the first pair was stained with hematoxylin and eosin in order to identify any cells or cell remnants. The second slide was stained using Oil Red O (Lipid Stain, ab150678, Abcam, Cambridge, UK) for lipid visualization and lipid droplet size evaluation. One slide from the other pair was stained with crystal violet solution (Gram staining) to assess the level of microorganism presence. The remaining slides were kept unstained for possible future use.
# All stained smears were examined microscopically by a highly experienced cytopathologist. Microscopy was performed using Olympus BX41 laboratory microscope (Olympus, Japan) at ×1000 magnification.
# The analysis included examining 40 fields of view within one smear. Dark field microscopy was applied for lipid crystal visualization. […]
# The analysis of typical structural elements of the RSSC comprised lipid droplet measurements, counting characteristic lipid crystals and desquamated corneocytes, and evaluation of bacterial presence as previously described. The indicated micro objects/structures were quantified using Cell^B imaging software (Digital Imaging Solutions, Olympus, Japan). […]
# In the morphological analysis of the RSSC quantitatively assessed parameters comprised lipid droplet size, numbers of desquamated corneocytes and lipid crystals and bacterial presence estimates (using Bacterial Presence Assessment Scale as described in our previous paper).
smiles,measurement,setting,value
"CC1=C(/C=C/C(C)=C/C=C/C(C)=C/C=C/C=C(C)/C=C/C=C(C)/C=C/C2=C(C)C(=O)[C@@H](O)CC2(C)C)C(C)(C)C[C@H](O)C1=O [Astaxanthin, astaxanthin]","Size of butter lipid droplets, Mean",[1]; astaxanthin dose 0.1 per 30 g of butter,7.44 µm
same,"Size of butter lipid droplets, Mean",[1]; astaxanthin dose 0.5 per 30 g of butter,9.23 µm
same,"Size of butter lipid droplets, Mean",[1]; astaxanthin dose 1.0 per 30 g of butter,12.4 µm
same,"Size of butter lipid droplets, Mean",[1]; astaxanthin dose 2.0 per 30 g of butter,14.7 µm
same,"Size of butter lipid droplets, Mean",[1]; astaxanthin dose 3.5 per 30 g of butter,12.2 µm
same,"Size of butter lipid droplets, Mean",[1]; astaxanthin dose 7.0 per 30 g of butter,25 µm
same,"Size of butter lipid droplets, Mean",[1]; astaxanthin dose 10.0 per 30 g of butter,34.1 µm
same,"Size of pork fat globules, Mean",[2]; astaxanthin dose 0.1 per 30 g of pork fat,5.687 μm
same,"Size of pork fat globules, Mean",[2]; astaxanthin dose 0.5 per 30 g of pork fat,4.937 μm
same,"Size of pork fat globules, Mean",[2]; astaxanthin dose 1.0 per 30 g of pork fat,5.333 μm
same,"Size of pork fat globules, Mean",[2]; astaxanthin dose 2.0 per 30 g of pork fat,6.812 μm
same,"Size of pork fat globules, Mean",[2]; astaxanthin dose 3.5 per 30 g of pork fat,8.307 μm
same,"Size of pork fat globules, Mean",[2]; astaxanthin dose 7.0 per 30 g of pork fat,7.9 μm
same,"Size of pork fat globules, Mean",[2]; astaxanthin dose 10.0 per 30 g of pork fat,8.692 μm
same,Increase in the pork fat globules diameter,[2]; maximum doses,50%
same,Increase of beef fat globules diameter,[3],2.5 folds
same,Decrease of dairy butter viscosity from size of the spread drops,[4],about 3
same,Oil volume needed to cover the surface of the water,[5],15 mL
same,Reduction of melting time of dairy butter,Melting time at 37° C. [6],more than 3.5 fold
same,Melting time of dairy butter,Melting time at 37° C. [6]; control 140 seconds,38 s
same,Melting time of dark chocolate,Melting time at 37° C. [7],5 min
same,Reduction of thawing time of Olive oil,[8]; 0.3 mg per 1 ml of the oil,11 fold
same,Thawing time of frozen Olive oil,"[8]; 0.3 mg per 1 ml of the oil, controls 60 (lycopene) and 48 seconds (astaxanthin)",4.3 s
same,Reduction of thawing time of Sunflower oil,[8]; 0.3 mg per 1 ml the oil,above 3 fold
same,Rate of heating of olive oil emulsion in water in the first 3 minutes,"[9]; 50%:50%, 1 molecule lycopene to 67,000 or astaxanthin to 71,000 fatty acids, control 10° C.",23 °C
same,Maximum temperature the emulsion could reach,"[9]; water to olive oil 75%:25%, control 62° C.",90 °C
same,Corneocyte desquamation levels at the end of the study,[10]; P=0.0075,clearly reduced in most volunteers
same,"Lipid droplet size, day 29 vs day 0",[10]; subgroup of obese subjects,statistically significant (P=0.0214) increase
same,"Lipid droplet size, day 29 vs day 0","[10]; whole group, P=0.0683",has not reached statistical significance
same,Microbial presence in RSSC samples,[10]; whole volunteer group,statistically significant (P=0.0367) decrease
